# Patent publication US9546354B2, “Z cells activated by zinc finger-like protein and uses thereof in cancer treatment” (National Cheng Kung University, priority 2014, dated 2017)
# Entries after “also recorded” stand apart in the source; their conditions may differ. No end group written: not given here. TMR = tetramethylrhodamine label
# Assays:
# [1] = molecular target: T1, membrane hyaluronidase Hyal-2 (Mus musculus, UniProt O35632); assay: staining of spleen cells with TMR-Zfra and Hyal-2 antibody, epifluorescence and confocal microscopy; format: binding, NOD-SCID mice; conditions: 30 minutes on ice
# T1 construct: spleen cells were isolated from immune deficient NOD-SCID mice; from tissue; host or cells: spleen cells of NOD-SCID mice
# T1 sequence (O35632 21-448): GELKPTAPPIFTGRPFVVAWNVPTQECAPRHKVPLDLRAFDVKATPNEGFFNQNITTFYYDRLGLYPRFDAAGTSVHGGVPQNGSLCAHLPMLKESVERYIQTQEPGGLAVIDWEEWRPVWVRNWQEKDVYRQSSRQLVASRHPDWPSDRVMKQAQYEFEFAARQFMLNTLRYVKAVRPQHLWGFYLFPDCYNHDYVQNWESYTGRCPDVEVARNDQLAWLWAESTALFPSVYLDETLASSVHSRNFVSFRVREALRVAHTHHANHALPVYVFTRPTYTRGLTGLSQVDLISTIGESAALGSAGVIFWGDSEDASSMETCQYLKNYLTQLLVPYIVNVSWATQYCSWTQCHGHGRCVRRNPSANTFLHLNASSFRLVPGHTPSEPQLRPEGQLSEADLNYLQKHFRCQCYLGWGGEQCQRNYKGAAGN
# Description: FIG. 2 includes photos showing the identification of Zfra^+ Hyal-2^+ spleen cells. A and B: Spleen cells of NOD-SCID mice were isolated and stained with synthesized peptide TMR-Zfra1-31 and Hyal-2 (green fluorescence) antibody for 30 minutes on ice, and then fixed with 4% formaldehyde.
# In this example, spleen cells were isolated from immune deficient NOD-SCID mice, which are deficient in T and B lymphocytes and NK cells. The isolated spleen cells were stained with antibody against Hyal-2 (green) and TMR-Zfra (Zfra1-31 labeled with red fluorescent tetramethylrodamine) for 30 minutes on ice, and then fixed with 4% formaldehyde (FIG. 2). […] These Hyal-2^+ Zfra^+ positive cells are interchangeably referred to as “Z cells,” for cells interacting with Zfra.
# WWOX = assay: Ser14 phosphorylation of WWOX and Wwox protein level in the lung of treated mice; format: in vivo, BALB/c mice
# Description: (§1) FIG. 1 includes photos showing that Zfra suppresses melanoma B16F10 metastasis to the lung and cancer stemness. BALB/c mice were pre-injected with sterile MilliQ water or Zfra4-10 (1 mM in 100 μl sterile water) in 3 consecutive weeks. Post-treatment for a week, these mice were inoculated with melanoma B16F10 cells via tail veins (2×10^5 cells in 100 μl PBS). Control mice died 50 days later, and Zfra-treated mice were alive and sacrificed for examination. A: Shown on the lung surface are the metastatic tumor foci as dark areas in control mice. […] No metastases were found in other organs in both mice. C: Zfra suppressed Ser14 phosphorylation of […] (or Wwox) in the lung of Zfra treated mice (˜65% suppression).
# (§2) Importantly, cancer cell stemness, as determined by the expression of pluripotent stem cell markers Oct-4 and SSEA-4, was blocked in the lungs of Zfra4-10 treated mice (FIG. 1D). Thus, when WWOX phosphorylation at Ser14 is blocked by Zfra, cancer cell metastasis and stemness is prevented.
# melanoma B16F10 cells [2] = assay: melanoma B16F10 lung metastasis after tail-vein inoculation in pre-injected BALB/c mice; format: in vivo
# Description: as §1
# BALB/c mice were pre-injected with sterile MilliQ water or Zfra4-10 (1 mM in 100 μl sterile water) once per week in three consecutive weeks. Following one week post-treatment, the mice were inoculated with melanoma B16F10 cells via tail veins (2×10^5 cells in 100 μl PBS).
# as §2
# Z cells = assay: Z cell activation by Zfra peptide; format: cell-based, BALB/c mice; conditions: in vivo and in vitro
# Description: Briefly, spleen cells were isolated from BALB/c mice and then cultured overnight. These cells were stimulated with Zfra4-10 peptide (10 μM) for 16-24 hr, and then stained with TMR-Zfra, followed by isolating the cells using a cell sorter. Z+ and Z− cell populations were counted and injected via tail veins of BALB/c. […] FIG. 5.
# melanoma B16F10 cells [3] = assay: melanoma B16F10 growth in pre-injected BALB/c mice; format: in vivo; conditions: pre-injection before inoculation, immune competent BALB/c mice
# Description: (§3) FIG. 3 is a diagram showing identification of Z spleen cells. (A) Nude mice were pre-injected with sterile MilliQ water or a mixture of Zfra1-31 (2 mM in 100 μl sterile water) in 4 consecutive weeks, followed by inoculating malignant breast MDA-MB-231 cells on both flanks 7 and 50 days later. Tumor sizes on both flanks (blue and red) were measured daily. […] These mice were sacrificed, and TMR-Zfra-positive spleen cells were isolated by cell sorting. TMR-Zfra-positive Z spleen cells were around 25% in Zfra-treated mice. […] In B16F10 melanoma-growing BALB/c mice, spleen Z cells dropped down to 3.3% or even lower. In untreated control mice, Z cells are around 25-29%.
# FIG. 4A is a diagram showing in vivo animal models design to test the anticancer efficacy of chemical drugs and “Z cells” activation. Immune competent BALB/c mice or immune deficient NOD-SCID mice were pre-injected with CI-4AS-1 or (±)-Blebbistatin with or without zinc finger-like Zfra4-10 peptide once per week for 3 consecutive weeks, and then inoculated with 2.5×10^6 or 1.5×10^6 malignant melanoma B16F10 cells at both right and left flanks. After 60 days, spleen cells transferred were performed from BALB/c to NOD-SCID mice via tail veins injection. Thirty days later, the recipient mice were inoculated with 1.5×10^6 malignant melanoma B16F10 cells at both right and left flanks. […]
# DsRed-Hyal-2 = assay: Förster resonance energy transfer (FRET) analysis; format: binding; conditions: versus EGFP and DsRed controls, n=10, p<0.005
# spleen Z cells = assay: level of TMR-Zfra-positive spleen Z cells by cell sorting; format: in vivo; conditions: Zfra-treated BALB/c mice inoculated with B16F10 melanoma
# Description: as §3
# Next, the levels of spleen Z cells in mice pre-treated with full-length Zfra1-31 or control and inoculated with B16F10 melanoma cells were examined. B16F10-growing BALB/c mice had low levels of Z cells, which were 3.3% or lower (FIG. 3C). In contrast, Zfra-treated mice had 26.1% Z cells (FIG. 3C). […] These cells are Hyal-2 positive. The observations indicate that Z cells (e.g., Hyal-2 positive spleen cells) are depleted in mice having cancer growths, and that treatment with Zfra increases the number of Z cells in mice having cancer growths.
# Spleen cells from the mice were isolated and stained with synthesized peptide TMR-Zfra1-31 (Tetramethylrhodamine-Zfra, excitation 550 nm, emission 573 nm) for 30 minutes on ice.
# Z cell function = assay: screen of more than 300 compounds for boosting Z cell function; conditions: alone or in combination with a Zfra peptide
# Source text: In this example, more than 300 hundred compounds were screened for their activities in boosting Z cell function either alone or in combination with a Zfra peptide. From this collection of compounds, CI-4AS-1 (androgen receptor agonist) and (±)-Blebbistatin (inhibitor for non-muscle myosin II ATPase) were identified.
# breast MDA-MB-231 cells = assay: breast MDA-MB-231 xenograft growth in pre-injected nude mice; format: in vivo; conditions: pre-injected once per week for 4 weeks
# Description: as §3
compound,measurement,setting,value
TMR-Zfra1-31: Zfra1-31 labeled with red fluorescent tetramethylrodamine ({TMR}-MSSRRSSSCKYCEQDFRAHTQKNAATPFLAN; cysteine pairing not given here),binding to or colocalization with membrane Hyal-2 on spleen cells,[1],bound to membrane hyaluronidase Hyal-2
same,binding to or colocalization with membrane Hyal-2 on spleen cells,[1]; listed as TMR-Zfra,colocalization of both proteins on the cell surface
RRSSSCK [Zfra4-10],Wwox protein levels,WWOX; lung of Zfra treated mice,not suppressed
same,suppression of Ser14 phosphorylation of WWgre (or Wwox) in the lung,"WWOX; lung of Zfra treated mice, FIG. 1C",~65%
same,Ser14 phosphorylation of WWOX (in words),"WWOX; lung of treated mice, FIG. 1C",inhibition of Ser14 phosphorylation of WWOX
same,cancer cell stemness (pluripotent markers Oct-4 and SSEA-4) in the lung,"melanoma B16F10 cells [2]; B16F10 cells in the lung, FIG. 1D",suppressed the stemness; also recorded: blocked
same,melanoma B16F10 metastasis to the lung,melanoma B16F10 cells [2]; Zfra4-10 1 mM in 100 μl once per week for 3 weeks before 2×10^5 B16F10 cells via tail veins,Metastasis was not found; also recorded: suppressed melanoma B16F10 metastasis to the lung
same,survival of mice,melanoma B16F10 cells [2]; when control mice died 50 days after inoculation of B16F10 cells,remained alive
same,Z cell activation,Z cells,sufficient to induce Z cell activation both in vivo and in vitro
same,growth of melanoma B16F10 in BALB/c mice,melanoma B16F10 cells [3],prevented melanoma B16F10 growth
"EGFP-Zfra: EGFP-tagged Zfra used in FRET analysis with DsRed-Hyal-2 (MSSRRSSSCKYCEQDFRAHTQKNAATPFLAN; cysteine pairing not given here; also: EGFP tag fused, end not given here) [reference compound]",binding to Hyal-2 by FRET,DsRed-Hyal-2,significant binding
"Zfra: Zfra peptide, form not stated at the place (Zfra1-31 or Zfra4-10) (MSSRRSSSCKYCEQDFRAHTQKNAATPFLAN)",binding to Hyal-2 by FRET,DsRed-Hyal-2,binding of Zfra to membrane Hyal-2
same,TMR-Zfra-positive Z spleen cells,spleen Z cells,around 25%
same,growth of melanoma B16F10 in BALB/c mice,melanoma B16F10 cells [3],completely blocked
Cc1ccc2c(c1)C(=O)C1(O)CCN(c3ccccc3)C1=N2 (racemic) [(±)-Blebbistatin],outcome of screen for boosting Z cell function,Z cell function,identified
CI-4AS-1,outcome of screen for boosting Z cell function,Z cell function,identified
NH-MSSRRSSSCKYCEQDFRAHTQKNAATPFLAN-COOH (H-MSSRRSSSCKYCEQDFRAHTQKNAATPFLAN-OH; cysteine pairing not given here) [Zfra1-31],growth of breast MDA-MB-231 xenografts,breast MDA-MB-231 cells,resisted the growth
same,TMR-Zfra-positive Z spleen cells,spleen Z cells,26.1%
